{"source": "paper PMC8886686", "about": "(Journal of Inorganic Biochemistry, 2022)", "key": {"3CLpro^D155A/C156S": {"biological_target": "3CLpro^D155A/C156S (Severe acute respiratory syndrome coronavirus 2, UniProt P0DTD1, C3419S/D3418A)", "type": "biochemical, SARS-CoV-2", "conditions": "read-out: IC50, 3CLpro^D155A/C156S activity"}, "PLpro^C112S": {"biological_target": "PLpro^C112S (Severe acute respiratory syndrome coronavirus 2, UniProt P0DTD1, C1674S)", "type": "binding, SARS-CoV-2"}}, "data": [{"smiles": "O=C([O-])[C@H](O)[C@@H](O)[C@H](O)[C@H](O)CO.O=C([O-])[C@H](O)[C@@H](O)[C@H](O)[C@H](O)CO.[Zn+2]", "note": "[Zn^2+, zinc gluconate]", "values": [{"measurement": "IC50", "setting": "3CLpro^D155A/C156S", "value": "1.54 ± 0.05", "unit": "µM"}, {"measurement": "Zn2+ binding capacity of PLpro^C112S (ICP-MS)", "setting": "PLpro^C112S", "value": "0.71 ± 0.01", "unit": "eq."}]}]}
